Reference: ChEMBL document CHEMBL3885861, “Open TG-GATES”

Species on record: Rattus norvegicus
Experiment: Open TG-GATES - Regimen: Daily Repeat
Type: toxicity, organism-based, Sprague-Dawley
Parameters: regimen Daily Repeat, gender Male, age 6 weeks
Conditions: in vivo, po, 100 mg/kg, route gavage, dose level Middle; for APTT / Bas / Eos / Fbg / Hb / Ht / Lym / MCH / MCHC / MCV / Mono / Neu / PT / Plat / RBC / Ret / WBC: tissue Blood; for KIDNEY_L / KIDNEY_R / KIDNEY_TOTAL: tissue Kidney; for LIVER: tissue Liver; for A/G / ALP / ALT / AST / BUN / CRE / Ca / Cl / DBIL / GLC / IP / K / LDH / Na / PL / RALB / TBIL / TC / TG / TP / gamma-GTP: tissue Plasma

## CC[C@H]1[C@@H]2C[C@H]3[C@@H]4N(C)c5ccccc5[C@]45C[C@@H]([C@@H]2[C@H]5O)N3[C@@H]1O [AJMALINE]
72 h, time 3 day
  TERMINAL_BW: 207.1 g
  APTT: 16.3 s
  Bas: 0%
  Eos: 1%
  Fbg: 202.6 mg/dL
  Hb: 12.8 g/dL
  Ht: 39.2%
  Lym: 79%
  MCH: 21.3 pg
  MCHC: 32.8%
  MCV: 65.1 fL
  Mono: 6%
  Neu: 13.6%
  PT: 11.8 s
  Plat: 114.8 x10_4/uL
  RBC: 601.8 x10_4/ul
  Ret: 7.8%
  WBC: 101.3 x10_2/uL
  KIDNEY_L: 1 g
  KIDNEY_R: 0.9 g
  KIDNEY_TOTAL: 1.9 g
  LIVER: 9.7 g
  A/G: 1.9
  ALP: 888.2 IU/L
  ALT: 39.2 IU/L
  AST: 63 IU/L
  BUN: 16.2 mg/dL
  CRE: 0.5 mg/dL
  Ca: 10.6 mg/dL
  Cl: 102.2 meq/L
  DBIL: 0.04 mg/dL
  GLC: 201 mg/dL
  IP: 7.9 mg/dL
  K: 4.3 meq/L
  LDH: 98.6 IU/L
  Na: 139.2 meq/L
  PL: 138 mg/dL
  RALB: 3.5 g/dL
  TBIL: 0.3 mg/dL
  TC: 71.8 mg/dL
  TG: 81 mg/dL
  TP: 5.3 g/dL
  gamma-GTP: 1 IU/L
[…], time 7 day
  TERMINAL_BW: 245.4 g
  APTT: 16.6 s
  Bas: 0%
  Eos: 0.8%
  Fbg: 231.4 mg/dL
  Hb: 13.3 g/dL
  Ht: 40.4%
  Lym: 78.8%
  MCH: 21.1 pg
  MCHC: 32.8%
  MCV: 64.4 fL
  Mono: 7.6%
  Neu: 13%
  PT: 11.3 s
  Plat: 128.6 x10_4/uL
  RBC: 628 x10_4/ul
  Ret: 6.9%
  WBC: 119.7 x10_2/uL
  KIDNEY_L: 1 g
  KIDNEY_R: 1.1 g
  KIDNEY_TOTAL: 2.1 g
  LIVER: 12.2 g
  A/G: 2
  ALP: 770 IU/L
  ALT: 32.8 IU/L
  AST: 61.4 IU/L
  BUN: 18 mg/dL
  CRE: 0.5 mg/dL
  Ca: 11.6 mg/dL
  Cl: 103.8 meq/L
  DBIL: 0.012 mg/dL
  GLC: 219.2 mg/dL
  IP: 8.7 mg/dL
  K: 4.7 meq/L
  LDH: 106.8 IU/L
  Na: 142.8 meq/L
  PL: 154.4 mg/dL
  RALB: 3.8 g/dL
  TBIL: 0.3 mg/dL
  TC: 80 mg/dL
  TG: 94.6 mg/dL
  TP: 5.7 g/dL
  gamma-GTP: 1.4 IU/L
[…], time 14 day
  TERMINAL_BW: 299.4 g
  APTT: 16.9 s
  Bas: 0%
  Eos: 0.8%
  Fbg: 231.4 mg/dL
  Hb: 14.1 g/dL
  Ht: 42.6%
  Lym: 80.6%
  MCH: 20.4 pg
  MCHC: 33.1%
  MCV: 61.7 fL
  Mono: 5.6%
  Neu: 13.4%
  PT: 11.2 s
  Plat: 140 x10_4/uL
  RBC: 690 x10_4/ul
  Ret: 4.7%
  WBC: 140 x10_2/uL
  KIDNEY_L: 1.2 g
  KIDNEY_R: 1.2 g
  KIDNEY_TOTAL: 2.3 g
  LIVER: 13.4 g
  A/G: 1.9
  ALP: 802.8 IU/L
  ALT: 31.8 IU/L
  AST: 65.6 IU/L
  BUN: 19.4 mg/dL
  CRE: 0.6 mg/dL
  Ca: 11 mg/dL
  Cl: 104 meq/L
  DBIL: 0.012 mg/dL
  GLC: 207 mg/dL
  IP: 7.6 mg/dL
  K: 4.7 meq/L
  LDH: 116.4 IU/L
  Na: 140.6 meq/L
  PL: 153.2 mg/dL
  RALB: 3.7 g/dL
  TBIL: 0.4 mg/dL
  TC: 77 mg/dL
  TG: 109.6 mg/dL
  TP: 5.7 g/dL
  gamma-GTP: 1.2 IU/L
[…], time 28 day
  TERMINAL_BW: 363.5 g
  APTT: 16.5 s
  Bas: 0%
  Eos: 1%
  Fbg: 218.6 mg/dL
  Hb: 15.3 g/dL
  Ht: 45.6%
  Lym: 83%
  MCH: 19.2 pg
  MCHC: 33.4%
  MCV: 57.5 fL
  Mono: 4.8%
  Neu: 11.2%
  PT: 11.5 s
  Plat: 123.8 x10_4/uL
  RBC: 795 x10_4/ul
  Ret: 2.1%
  WBC: 123.3 x10_2/uL
  KIDNEY_L: 1.3 g
  KIDNEY_R: 1.3 g
  KIDNEY_TOTAL: 2.6 g
  LIVER: 14.6 g
  A/G: 1.8
  ALP: 699.2 IU/L
  ALT: 33.4 IU/L
  AST: 59.8 IU/L
  BUN: 17.8 mg/dL
  CRE: 0.6 mg/dL
  Ca: 10.2 mg/dL
  Cl: 104.4 meq/L
  DBIL: 0.036 mg/dL
  GLC: 189.8 mg/dL
  IP: 6.6 mg/dL
  K: 4.5 meq/L
  LDH: 87.6 IU/L
  Na: 141.2 meq/L
  PL: 131.6 mg/dL
  RALB: 3.9 g/dL
  TBIL: 0.3 mg/dL
  TC: 60.6 mg/dL
  TG: 108.4 mg/dL
  TP: 6 g/dL
  gamma-GTP: 1.6 IU/L
